The text below walks through data of patent US9089603B2, “Fluorescent imaging with substituted cyanine dyes” (LI-COR, INC., priority 2010, dated 2015).

Data set [1] can be described thus: Absorption wavelength of the cyanine dyes in methanol (halo substitution effect). The data set is classed as physicochemical. An excerpt:
[table] Design Principle: We analyzed the properties of a dye scaffold and related compounds and the corresponding substitution effects on the excitation and emission wavelengths. The small size of fluorine is unlikely to produce steric effects, therefore, we explored the electronic effects of fluorine and related substitutions. The Hammett equation (σ-value) is an important tool to understand the electronic effects of the substituents, therefore, we explored the correlation of the wavelength (λMeOH) and the σ-value (vide infra): […]

Data set [2] is described as follows: Comparison of dye emission maxima and quenching. The data set is classed as physicochemical. As to conditions: IRDye 800CW samples; PBS pH 7.4; excitation 770 nm. The protocol: Solutions of dye-linker standards and dye-linker-quencher samples were diluted into PBS buffer (pH 7.4) to give a dye-specific absorbance less than 0.2 AU. The fluorescence spectra of each dilution were then taken at a consistent excitation wavelength (670 nm for HETD and 770 nm for IRDye 800CW). The emission spectra were collected from 680-1000 nm for the HETD samples and 780-1000 nm for the IRDye 800CW samples.

Data set [3] is described as follows: Photophysical properties (absorption, emission, fluorescence intensity, quantum yield) versus IRDye 800CW. The data set is classed as physicochemical.
Data set [4] is described as follows: In vivo clearance imaging in nude mice (Pearl Impulse). As to conditions: 1 nmole; for Total (signal): 800 channel. The protocol: Two nude mice were injected with 1 nmole of either compound 16 or IRDye 800CW carboxylate. They were then imaged longitudinally over the next 24 h with the Pearl Impulse imaging system. The results are presented in FIG. 9: in vivo clearance in nudes (FIG. 9A), whole body dorsal views (FIG. 9B), and the rate of clearance (FIG. 9C). The clearance data is presented below in Table 4.

As for `CC1(C)C(/C=C/C2=C(c3ccccc3F)C(=C/C=C3/N(CCCCS(=O)(=O)[O-])c4ccc(S(=O)(=O)[O-])cc4C3(C)C)/CCC2)=[N+](CCCCCC(=O)O)c2ccc(S(=O)(=O)[O-])cc21.[Na+].[Na+]`, the λMeOH in data set [1] (Table 5) was found to be 772 nm. For `CC1(C)C(/C=C/C2=C(c3c(F)cccc3F)C(=C/C=C3/N(CCCCS(=O)(=O)[O-])c4ccc(S(=O)(=O)[O-])cc4C3(C)C)/CCC2)=[N+](CCCCCC(=O)O)c2ccc(S(=O)(=O)[O-])cc21.[Na+].[Na+]`, the λMeOH in data set [1] (Table 5) amounted to 782 nm.

`CC1(C)C(/C=C/C2=C(c3c(F)cc(F)cc3F)C(=C/C=C3/N(CCCCS(=O)(=O)[O-])c4ccc(S(=O)(=O)[O-])cc4C3(C)C)/CCC2)=[N+](CCCCCC(=O)O)c2ccc(S(=O)(=O)[O-])cc21.[Na+].[Na+]` displayed a λMeOH in data set [1] (Table 5) of 785 nm. For `CCCCOc1c(F)cc(F)c(C2=C(/C=C/C3=[N+](CCCCCC(=O)O)c4ccc(S(=O)(=O)[O-])cc4C3(C)C)CCC/C2=C\C=C2\N(CCCCS(=O)(=O)[O-])c3ccc(S(=O)(=O)[O-])cc3C2(C)C)c1F.[Na+].[Na+]`, in data set [1] (Table 5), the λMeOH amounted to 789 nm. In data set [1] (Table 5), `CC1(C)C(/C=C/C2=C(c3c(F)cc(C(=O)O)cc3F)C(=C/C=C3/N(CCCCS(=O)(=O)[O-])c4ccc(S(=O)(=O)[O-])cc4C3(C)C)/CCC2)=[N+](CCCCCC(=O)O)c2ccc(S(=O)(=O)[O-])cc21.[Na+].[Na+]` had a λMeOH of 782 nm. The same measure, in the same setting: the value for `CC1(C)C(/C=C/C2=C(c3c(Cl)cccc3Cl)C(=C/C=C3/N(CCCCS(=O)(=O)[O-])c4ccc(S(=O)(=O)[O-])cc4C3(C)C)/CCC2)=[N+](CCCCCC(=O)O)c2ccc(S(=O)(=O)[O-])cc21.[Na+].[Na+]` was 782 nm. The same measure, in the same setting: for `COc1cc(F)c(C2=C(/C=C/C3=[N+](CCCCCC(=O)O)c4ccc(S(=O)(=O)[O-])cc4C3(C)C)CCC/C2=C\C=C2\N(CCCCS(=O)(=O)[O-])c3ccc(S(=O)(=O)[O-])cc3C2(C)C)c(F)c1.[Na+].[Na+]` the value was 772 nm; for `CCCCOc1ccc(F)c(C2=C(/C=C/C3=[N+](CCCCCC(=O)O)c4ccc(S(=O)(=O)[O-])cc4C3(C)C)CCC/C2=C\C=C2\N(CCCCS(=O)(=O)[O-])c3ccc(S(=O)(=O)[O-])cc3C2(C)C)c1F.[Na+].[Na+]`, 779 nm. On the same count and under the same terms, the value for `CCCCOc1c(F)c(F)c(C2=C(/C=C/C3=[N+](CCCCCC(=O)O)c4ccc(S(=O)(=O)[O-])cc4C3(C)C)CCC/C2=C\C=C2\N(CCCCS(=O)(=O)[O-])c3ccc(S(=O)(=O)[O-])cc3C2(C)C)c(F)c1F.[Na+].[Na+]` was 790 nm. As for `CC1(C)C(/C=C/C2=C(c3cccc(CCCCC(=O)O)c3)C(=C/C=C3/N(CCCCS(=O)(=O)[O-])c4ccc(S(=O)(=O)[O-])cc4C3(C)C)/CCC2)=[N+](CCCCS(=O)(=O)[O-])c2ccc(S(=O)(=O)[O-])cc21.[Na+].[Na+].[Na+]` [Compound 11], the λMeOH in data set [1] (Table 2) amounted to 766 nm. As for `CC1(C)C(/C=C/C2=C(c3ccccc3F)C(=C/C=C3/N(CCCCS(=O)(=O)[O-])c4ccc(S(=O)(=O)[O-])cc4C3(C)C)/CCC2)=[N+](CCCCS(=O)(=O)[O-])c2ccc(S(=O)(=O)[O-])cc21.[Na+].[Na+].[Na+]` [Compound 12], the λMeOH in data set [1] (Table 2) amounted to 772 nm. As for `CC1(C)C(/C=C/C2=C(c3c(F)cccc3F)C(=C/C=C3/N(CCCCS(=O)(=O)[O-])c4ccc(S(=O)(=O)[O-])cc4C3(C)C)/CCC2)=[N+](CCCCS(=O)(=O)[O-])c2ccc(S(=O)(=O)[O-])cc21.[Na+].[Na+].[Na+]` [Compound 13], the λMeOH in data set [1] (Table 2) amounted to 782 nm. On the same count and under the same terms, for `CC1(C)C(/C=C/C2=C(c3c(F)cc(F)cc3F)C(=C/C=C3/N(CCCCS(=O)(=O)[O-])c4ccc(S(=O)(=O)[O-])cc4C3(C)C)/CCC2)=[N+](CCCCS(=O)(=O)[O-])c2ccc(S(=O)(=O)[O-])cc21.[Na+].[Na+].[Na+]` [Compound 14] the value was 785 nm. Compound `CC1(C)C(/C=C/C2=C(c3c(Cl)cccc3Cl)C(=C/C=C3/N(CCCS(=O)(=O)[O-])c4ccc(S(=O)(=O)[O-])cc4C3(C)C)/CC(C(=O)O)C2)=[N+](CCCS(=O)(=O)[O-])c2ccc(S(=O)(=O)[O-])cc21.[Na+].[Na+].[Na+]` (centres unmarked) [Compound 15] came in with a λMeOH in data set [1] (Table 2) of 782 nm.

In turn, `COc1cc(F)c(C2=C(/C=C/C3=[N+](CCCCS(=O)(=O)[O-])c4ccc(S(=O)(=O)[O-])cc4C3(C)C)CCC/C2=C\C=C2\N(CCCCS(=O)(=O)[O-])c3ccc(S(=O)(=O)[O-])cc3C2(C)C)c(F)c1.[Na+].[Na+].[Na+]` [Compound 21] gave a λMeOH in data set [1] (Table 2) of 783 nm. Same read-out and setting: the value for `CCCCOc1ccc(F)c(C2=C(/C=C/C3=[N+](CCCCS(=O)(=O)[O-])c4ccc(S(=O)(=O)[O-])cc4C3(C)C)CCC/C2=C\C=C2\N(CCCCS(=O)(=O)[O-])c3ccc(S(=O)(=O)[O-])cc3C2(C)C)c1F.[Na+].[Na+].[Na+]` [Compound 22] was 783 nm; that for `CCCCOc1c(F)cc(F)c(C2=C(/C=C/C3=[N+](CCCCS(=O)(=O)[O-])c4ccc(S(=O)(=O)[O-])cc4C3(C)C)CCC/C2=C\C=C2\N(CCCCS(=O)(=O)[O-])c3ccc(S(=O)(=O)[O-])cc3C2(C)C)c1F.[Na+].[Na+].[Na+]` [Compound 23] was 789 nm; that for `CCCCOc1c(F)c(F)c(C2=C(/C=C/C3=[N+](CCCCS(=O)(=O)[O-])c4ccc(S(=O)(=O)[O-])cc4C3(C)C)CCC/C2=C\C=C2\N(CCCCS(=O)(=O)[O-])c3ccc(S(=O)(=O)[O-])cc3C2(C)C)c(F)c1F.[Na+].[Na+].[Na+]` [Compound 24] was 790 nm. Still for that read-out and setting: for `CC1(C)C(/C=C/C2=C(c3c(F)cc(C(=O)O)cc3F)C(=C/C=C3/N(CCCCS(=O)(=O)[O-])c4ccc(S(=O)(=O)[O-])cc4C3(C)C)/CCC2)=[N+](CCCCS(=O)(=O)[O-])c2ccc(S(=O)(=O)[O-])cc21.[Na+].[Na+].[Na+]` [Compound 26] the value was 782 nm. As to `CC1(C)C(/C=C/C2=C(Oc3ccc(S(=O)(=O)[O-])cc3)C(=C/C=C3/N(CCCCCC(=O)NCCOCCOCCOCCN=[N+]=[N-])c4ccc(S(=O)(=O)[O-])cc4C3(C)C)/CCC2)=[N+](CCCCS(=O)(=O)[O-])c2ccc(S(=O)(=O)[O-])cc21.[Na+].[Na+].[Na+]` [Compound 29, sodium 2-((E)-2-((E)-3-((E)-2-(1-(1-azido-13-oxo-3,6,9-trioxa-12-azaoctadecan-18-yl)-3,3-dimethyl-5-sulfonatoindolin-2-ylidene)ethylidene)-2-(4-sulfonatophenoxy)cyclohex-1-enyl)vinyl)-3,3-dimethyl-1-(4-sulfonatobutyl)-3H-indolium-5-sulfonate], the “Peak fluorescence emission intensity” value in data set [2] came to 1245060. Consider `CC1(C)C(/C=C/C2=C(c3cccc(F)c3F)C(=C/C=C3/N(CCCCS(=O)(=O)[O-])c4ccc(S(=O)(=O)[O-])cc4C3(C)C)/CCC2)=[N+](CCCCS(=O)(=O)[O-])c2ccc(S(=O)(=O)[O-])cc21.[Na+].[Na+].[Na+]` [Compound 62k], for which, in data set [3] (0.1 μM solutions in 1XPBS, Odyssey), the “Fl Intensity of X / Fl Intensity of 800 CW, Odyssey” value is given as 104%. In addition, the “Fl Intensity of X / Fl Intensity of 800 CW, Fluorimeter” value in data set [3] (0.1 μM solutions in 1XPBS, fluorimeter) was found to be 100%. In data set [3] (Stnd = IRDye 800CW (QY = 0.07)), the “Quantum Yield” value is recorded as 0.060. Also, in data set [3] (in PBS), the “Abs Max PBS” value amounted to 773 nm and the “EmMax PBS” value is 790 nm. For the same compound, the “Abs Max Methanol” value in data set [3] (in methanol) turned out to be 781 nm.

As to `CC1(C)C(/C=C/C2=C(c3cccc(F)c3F)C(=C/C=C3/N(CCCCS(=O)(=O)[O-])c4ccc(S(=O)(=O)[O-])cc4C3(C)C)/CC(C(=O)O)C2)=[N+](CCCCS(=O)(=O)[O-])c2ccc(S(=O)(=O)[O-])cc21.[Na+].[Na+].[Na+]` (centres unmarked) [Compound 63a], in data set [1] (Table 2), the λMeOH was 770 nm. In turn, `CC1(C)C(/C=C/C2=C(c3ccc(C(=O)O)c(F)c3F)C(=C/C=C3/N(CCCCS(=O)(=O)[O-])c4ccc(S(=O)(=O)[O-])cc4C3(C)C)/CCC2)=[N+](CCCCS(=O)(=O)[O-])c2ccc(S(=O)(=O)[O-])cc21.[Na+].[Na+].[Na+]` [Compound 64] returned a λMeOH in data set [1] (Table 2) of 772 nm.

`CC1(C)C(/C=C/C2=C(c3ccc(CCC(=O)O)c(F)c3F)C(=C/C=C3/N(CCCCS(=O)(=O)[O-])c4ccc(S(=O)(=O)[O-])cc4C3(C)C)/CCC2)=[N+](CCCCS(=O)(=O)[O-])c2ccc(S(=O)(=O)[O-])cc21.[Na+].[Na+].[Na+]` [Compound 65]: the λMeOH in data set [1] (Table 2) was determined as 776 nm. For the compound `CC1(C)C(/C=C/C2=C(c3ccc(C(=O)NCCCCCC(=O)O)c(F)c3F)C(=C/C=C3/N(CCCCS(=O)(=O)[O-])c4ccc(S(=O)(=O)[O-])cc4C3(C)C)/CCC2)=[N+](CCCCS(=O)(=O)[O-])c2ccc(S(=O)(=O)[O-])cc21.[Na+].[Na+].[Na+]` [Compound 66], the λMeOH in data set [1] (Table 2) came to 773 nm. Regarding “IRDye 800CW carboxylate [reference compound]”, the “Total (signal)” value in data set [4] (3 Min) was 114295.49; in data set [4] (19 Min), 306555.97; in data set [4] (47 Min) it was 291381.69; in data set [4] (74 Min), 272408.13; in data set [4] (192 Min), 154950.09; in data set [4] (278 Min) it was 102698.54. Also, the “Total (signal)” value in data set [4] (1439 Min) was 2336.87. Besides, in data set [4] (nude mice, imaged over 24 h), the Clearance in vivo entry is recorded as “good clearance”.
